Read-outs that look alike come from different tables or passages of the source.
Assays:
[1] = cited from earlier work; for block or reversal of the (+)-morphine-induced attenuation of systemic (−)-morphine-produced antinociception: pretreatment
mice = experiment: Tail-flick response after intrathecal injection, mouse spinal cord; conditions: for (−)-morphine-produced tail-flick inhibition after pretreatment given alone (did not affect): 10 μg intrathecal alone, 45 min before (−)-morphine 1 μg, measured 15 min after; for reversal of the (+)-morphine-induced attenuation of (−)-morphine-produced tail-flick inhibition: intrathecal with (+)-morphine 10 pg, BD1047 1-10 μg, (+)-pentazocine 0.1-10 μg, in a dose-dependent manner
rats [2] = experiment: Conditioned place preference (CPP), drugs given systemically; format: in vivo, rat; conditions: for effect given alone on baseline place conditioning (CPP or conditioned place aversion): 3 μg/kg i.p. alone, rats treated s.c. with saline vehicle
rats [3] = experiment: Conditioned place preference, (−)-morphine and (+)-morphine microinjected into the Acb shell; format: in vivo, rat
[4] = system: extracellular dopamine in the Acb shell; experiment: Microdialysis of extracellular dopamine in the Acb shell after microinjection into the VTA, urethane-anesthetized rats; format: in vivo, rat
Procedure: Groups of rats were microinjected with endomorphin-1 (1, 3 or 10 μg) or vehicle into the VTA (A). In other groups of rats, (−)-naloxone (4 or 40 ng) or vehicle was co-microinjected into the VTA with endomorphin-1 (10 μg). The perfusates from the microdialysis probe at the nucleus accumbens shell were collected every 15 min from 30 min before microinjection and continuously collected for another 120 min (A) or 105 min (B) after microinjection. The perfusates were then analyzed their dopamine level. […] (B) For the group of rats injected with different dose of (−)-naloxone+endomorphin-1 versus vehicle+endomorphin-1, Finteraction (18, 150)=3.338, Ftreatment (2, 150)=7.671, Ftime (9, 150)=11.17, *P<0.01; only the data of the dopamine level after the 0 min time point were used for the statistic analysis; the group of rats microinjected with vehicle alone in (B) was not included in the statistic analysis.
. The perfusates were then analyzed their dopamine level. […]; only the data of the dopamine level after the 0 min time point were used for statistic analysis; the vehicle pretreatment followed by vehicle microinjected group was not included in the statistic analysis.
Groups of rats were microinjected with a various dose of endomorphin-1 (1, 3 and 10 μg) or vehicle given into the VTA and the release of dopamine from the Acb shell were studied. […] The dopamine level returned to baseline 60 min thereafter (FIG. 8A). To determine if the increased release of dopamine induced by endomorphin-1 is mediated by the stimulation of μ-opioid receptors, the effect of (−)-naloxone on the increased release of dopamine induced by endomorphin-1 was then studied.

rats [5] = system: rats
[6] = cited from earlier work; for production of conditioned place preference or aversion: 4 mg/kg s.c., given systemically, Mucha and Herz 1986; for block of the CPP produced by (−)-morphine: Olmstead and Burns 2005

CC(C)=CCN1CCC2(C)c3cc(O)ccc3CC1C2C (single isomer, unassigned; (+)) [(+)-pentazocine]
effect against morphine, both given spinally ([1]; 13 μg against morphine 700 ng, mice, Mei and Pasternak 2002): without effect against morphine
effect on (−)-morphine-produced analgesia, systemic administration ([1]; 5 or 10 mg/kg, Chien and Pasternak 1994): antagonizes (−)-morphine-produced analgesia
(−)-morphine-produced tail-flick inhibition after pretreatment given alone (did not affect) (mice): 8.89 ± 0.53 s
reversal of the (+)-morphine-induced attenuation of (−)-morphine-produced tail-flick inhibition (mice): reversed

CN1CC[C@]23c4c5ccc(O)c4O[C@H]2[C@@H](O)C=C[C@H]3[C@H]1C5 [(+)-morphine]
effect given alone on baseline place conditioning (CPP or conditioned place aversion) (rats [2]): did not affect the baseline place conditioning
effect given alone on baseline place conditioning (CPP or conditioned place aversion) (rats [2]; listed as dextro-morphine): did not produce CPP nor conditioned place aversion
attenuation of (−)-morphine-produced CPP at higher dose (rats [2]; i.p. pretreatment 100 μg/kg, 1 h before (−)-morphine sulfate 5 mg/kg s.c.): did not attenuate the (−)-morphine-produced CPP
attenuation of (−)-morphine-produced CPP (rats [2]; i.p. pretreatment 0.1 to 3 μg/kg, 1 h before (−)-morphine sulfate 5 mg/kg s.c.): dose-dependently attenuated the (−)-morphine-produced CPP
dose of maximal inhibition of the morphine-produced CPP (U-shaped dose-response curve) (rats [2]; i.p., dose range 0.1 to 100 μg/kg): 3 µg/kg
attenuation of (−)-morphine-produced conditioned place preference (rats [3]; 0.1 to 10 pg into the Acb shell, 45 min before (−)-morphine 5 μg, same site): dose-dependently attenuated the (−)-morphine-produced conditioned place preference
production of conditioned place preference given alone (rats [3]; 3 to 100 pg into the Acb shell, alone): did not produce any conditioned place preference
attenuation of (−)-morphine-produced conditioned place preference at higher doses (rats [3]; 30, 100 and 1000 pg into the Acb shell, 45 min before (−)-morphine 5 μg): did not attenuate the (+)-morphine-produced conditioned place preference
dose of maximal inhibition (U-shape dose-response curve) (rats [3]; into the Acb shell, dose range 0.1 to 1000 pg): 3 pg
block of the endomorphin-1-induced increase of extracellular dopamine ([4]; 3 pg into the VTA, 45 min before endomorphin-1 10 μg): completely blocked the increase of the extracellular dopamine in the Acb shell
effect on basal levels of extracellular dopamine ([4]; microinjection into the VTA): did not affect the basal levels of extracellular dopamine in the Acb shell
block of the nicotine-produced increase of conditioned place preference at single dose (rats [5]; 0.3 pg into the Acb, nicotine 20 μg): completely block the nicotine-produced increase of the conditioned place preference
block of the nicotine-produced increase of conditioned place preference (rats [5]; pretreatment 0.03 to 3 pg into the Acb, nicotine 20 μg): blocked dose-dependently
production of conditioned place preference or aversion [6]: does not produce any conditioned place preference nor does it produce any conditioned place aversion
attenuation of antinociception produced by (−)-morphine given systemically ([1]; pretreated systemically, Wu et al., 2007): attenuates the antinociception produced by (−)-morphine given systemically
effect on (−)-morphine-produced tail-flick inhibition (mice; 10 pg intrathecal, 45 min before (−)-morphine 1 μg intrathecal): attenuated the (−)-morphine-produced tail-flick inhibition

C=CCN1CC[C@]23c4c5ccc(O)c4O[C@H]2C(=O)CC[C@]3(O)[C@H]1C5 [(+)-naloxone]
block or reversal of the (+)-morphine-induced attenuation of systemic (−)-morphine-produced antinociception ([1]; Wu et al., 2007): blocked or reversed

CN1CC[C@]23c4c5ccc(O)c4O[C@H]2[C@@H](O)C=C[C@H]3[C@H]1C5.O=S(=O)(O)O [(−)-morphine sulfate, (−)-Morphine sulfate]
production of CPP at higher dose (rats [2]; rats, s.c., 10 mg/kg): produced no more increase of the CPP
production of CPP (rats [2]; rats, s.c., 1 and 5 mg/kg): dose-dependently produced CPP
production of conditioned place preference at higher dose (rats [3]; 10 μg into the Acb shell): produced no further increase of conditioned place preference
production of conditioned place preference (rats [3]; 2.5 or 5 μg into the Acb shell): dose-dependently produced conditioned place preference
production of conditioned place preference or aversion [6]: produces marked conditioned place preference

Br.Br.CN(C)CCN(C)CCc1ccc(Cl)c(Cl)c1 [BD1047, N-[2-(3,4-Dichlorophenyl)ethyl]-N-methyl-2-(dimethylamino)ethylamine dihydrobromide]
effect given alone on the morphine-produced CPP (rats [2]; 3 mg/kg i.p. alone, morphine sulfate 5 mg/kg s.c.): did not affect the morphine-produced CPP
effect given alone on baseline place preference (rats [2]; 3 mg/kg i.p. alone, rats treated with saline vehicle): nor did it affect the baseline place preference
reversal of the attenuation of (−)-morphine-produced CPP induced by (+)-morphine (rats [2]; 1, 3 or 6 mg/kg i.p. with (+)-morphine 3 μg/kg, 1 h before morphine sulfate 5 mg/kg s.c.): dose-dependently reversed the attenuation of the morphine-produced CPP
block or reversal of the (+)-morphine-induced attenuation of systemic (−)-morphine-produced antinociception ([1]; Wu et al., 2007): blocked or reversed
(−)-morphine-produced tail-flick inhibition after pretreatment given alone (did not affect) (mice): 9.19 ± 0.42 s
reversal of the (+)-morphine-induced attenuation of (−)-morphine-produced tail-flick inhibition (mice): reversed

C=CCN1CC[C@]23c4c5ccc(O)c4O[C@H]2/C(=N/N=C2\CC[C@@]4(O)[C@H]6Cc7ccc(O)c8c7[C@@]4(CCN6CC=C)[C@H]2O8)CC[C@@]3(O)[C@H]1C5 [naloxonazine]
block of the CPP produced by (−)-morphine [6]: blocked

O=C1CC[C@@]2(O)[C@H]3Cc4ccc(O)c5c4[C@@]2(CCN3CC2CC2)[C@H]1O5 [naltrexone]
block of the CPP produced by (−)-morphine [6]: blocked

CN1CCCC1c1cccnc1 (stereo not shown) [nicotine]
production of conditioned place preference at higher dose (rats [5]; 40 μg microinjected into the Acb): produced less increase of the conditioned place preference than that of 20 μg of nicotine
production of conditioned place preference (rats [5]; 5 to 20 μg microinjected into the Acb): dose-dependently increased the conditioned place preference

(−)-naloxone
attenuation of the endomorphin-1-induced increase of extracellular dopamine ([4]; 40 ng co-administered into the VTA with endomorphin-1 10 μg): attenuated the increase of the extracellular dopamine in the Acb shell
block or reversal of the (+)-morphine-induced attenuation of systemic (−)-morphine-produced antinociception ([1]; Wu et al., 2007): blocked or reversed

Endomorphin-1
extracellular dopamine in the Acb shell ([4]; 10 μg into the VTA, 15 min after injection): caused an increase of the extracellular dopamine in the Acb shell
time for the dopamine level to return to baseline ([4]; 10 μg into the VTA, thereafter): 60 min
